{"source": "ChEMBL document CHEMBL1148709", "about": "“Derivatives of (-)-7-methyl-2-(5-(pyridinyl)pyridin-3-yl)-7-azabicyclo[2.2.1]heptane are potential ligands for positron emission tomography imaging of extrathalamic nicotinic acetylcholine receptors” (J Med Chem, 2007)", "key": {"[1]": {"test_system": "Mus musculus", "assay": "Toxicity assessed as induction of death in CD1 mouse at 2 umol/kg", "format": "organism-based", "conditions": "in vivo"}, "[2]": {"assay": "Ratio of drug level in thalamus to cerebellum in Wistar rat after 90 mins", "format": "ADME, tissue-based", "conditions": "in vivo, 1.5 h"}, "[3]": {"assay": "physchem", "conditions": "octanol/water, pH 7.4", "description": "Distribution coefficient, log D at pH 7.4 by shake-flask method"}, "[4]": {"test_system": "Mus musculus", "assay": "Induction of straub tail in CD1 mouse at 2 umol/kg", "format": "functional, organism-based"}, "[5]": {"test_system": "Mus musculus", "assay": "Induction of fast breathing in CD1 mouse at 2 umol/kg", "format": "functional, organism-based"}, "[6]": {"assay": "Ratio of drug level in thalamus to cerebellum in baboon after 180 mins", "format": "ADME, tissue-based", "conditions": "papio hamadryas, in vivo, 3 h"}, "[7]": {"assay": "Ratio of drug level in pans to cerebellum in baboon after 180 mins", "format": "ADME, tissue-based", "conditions": "papio hamadryas, in vivo, 3 h"}, "[8]": {"assay": "Ratio of drug level in frontal cortex to cerebellum in baboon after 180 mins", "format": "ADME, tissue-based", "conditions": "papio hamadryas, in vivo, 3 h"}}, "note": "Activity calls are given as the source filed them. No cut-off for these calls is given here."}
{"smiles": "CN1[C@@H]2CC[C@@H]1[C@@H](c1cncc(-c3ccc(F)nc3)c1)C2", "note": "(stereo in doubt; (-)-24d) [listing 1 of 2 here]", "values": [{"measurement": "Activity", "setting": "[1]", "result": "Non-toxic"}]}
{"smiles": "[11CH3]N1[C@@H]2CC[C@@H]1[C@@H](c1cnc(Cl)c(-c3ccnc(F)c3)c1)C2", "values": [{"measurement": "Ratio", "setting": "[2]", "result": 6.5}]}
{"smiles": "Fc1ccc(-c2cc([C@H]3C[C@H]4CC[C@H]3N4)cnc2Cl)cn1", "note": "(racemic)", "values": [{"measurement": "logD", "setting": "[3]", "result": 0.68}]}
{"smiles": "[11CH3]N1[C@@H]2CC[C@@H]1[C@@H](c1cnc(Cl)c(-c3ccnc(F)c3)c1)C2", "note": "(racemic)", "values": [{"measurement": "Ratio", "setting": "[2]", "result": 2.2}]}
{"smiles": "CN1[C@@H]2CC[C@@H]1[C@@H](c1cncc(-c3ccc(F)nc3)c1)C2", "note": "(racemic)", "values": [{"measurement": "logD", "setting": "[3]", "result": 0.45}]}
{"smiles": "CN1[C@@H]2CC[C@@H]1[C@@H](c1cnc(F)c(-c3ccc(C#N)nc3)c1)C2", "note": "(racemic)", "values": [{"measurement": "logD", "setting": "[3]", "result": 0.64}]}
{"smiles": "CN1[C@@H]2CC[C@@H]1[C@@H](c1cnc(F)c(-c3ccc(F)nc3)c1)C2", "note": "(racemic)", "values": [{"measurement": "logD", "setting": "[3]", "result": 0.96}]}
{"smiles": "CN1[C@@H]2CC[C@@H]1[C@@H](c1cncc(-c3ccc(F)nc3)c1)C2", "note": "(stereo in doubt; (-)-24d) [listing 2 of 2 here]", "values": [{"measurement": "Activity", "setting": "[4]", "result": "Active"}, {"measurement": "Activity", "setting": "[5]", "result": "Active"}]}
{"smiles": "CN1[C@@H]2CC[C@@H]1[C@@H](c1cnc(Cl)c(-c3ccnc(F)c3)c1)C2", "note": "(racemic)", "values": [{"measurement": "logD", "setting": "[3]", "result": 1.26}]}
{"smiles": "CN1[C@@H]2CC[C@@H]1[C@@H](c1cncc(-c3ccc([18F])nc3)c1)C2", "values": [{"measurement": "Ratio", "setting": "[6]", "result": 6}, {"measurement": "Ratio", "setting": "[7]", "result": 2.4}, {"measurement": "Ratio", "setting": "[8]", "result": 2.4}]}
{"smiles": "CN1[C@@H]2CC[C@@H]1[C@@H](c1cnc(Cl)c(-c3ccc(F)nc3)c1)C2", "note": "(single isomer, unassigned)", "values": [{"measurement": "logD", "setting": "[3]", "result": 1.42}]}
